Data taken from patent US20250177400A1, “METHODS OF THERAPEUTICS DEVELOPMENT OF GLIOBLASTOMA MULTIFORME BY QUINAZOLINE DERIVATIVES AND THEREOF” (priority 2023, published 2025).
“Also recorded” adds a separate entry of the source. Like-named read-outs stand apart in the source and are kept apart here.

Assays:
[1] = test system: Glioblastoma multiforme (GBM) cells (T98-G); assay: Induction of apoptosis in cultured glioblastoma multiforme cells (microscopy); type: cell-based, human; details: for induction of apoptosis in GBM cells: T98-G cells, 50 and 100 μM, three days, compared to vehicle control
Experimental: FIG. 2 depicts a novel quinazoline derivative (Compound 1:6-Pyridin-2-yl -5,6-dihydro-benzo[4,5]imidazo[1,2-c]quinazoline) that induces apoptosis in Glioblastoma (GBM) cells. Cells were treated with different concentrations of Compound 1 (0.1, 1, 10, 50, 100μ) or vehicle (control).
(§1) Glioblastoma multiforme (GBM) cells (T98-G) were cultured in 6 wells for ˜90% confluent. Cells were treated with different concentrations of Compound 1 (0.1, 1, 10, 50, 100μ) or vehicle (control). […] Cell viability was tested by trypan blue exclusion assay.
(§2) GBM cell line T98-G (ATCC-CRL-1690) was obtained and authenticated by the American Type Culture Collection (Cat #30-2003; ATCC, Manassas, VA). Cells were cultured and maintained in low glucose Dulbecco's Modified Eagle Medium (DMEM) (Thermo Fisher Scientific) supplemented with 10% fetal bovine serum (FBS, Thermo Fisher Scientific) at 37° C. in a 5% CO2 humidified atmosphere and passed in less than 6 months. Human neuroblastoma cells. Human SH-SY5Y neuroblastoma cells (Sigma-Aldrich) were cultured in 45% F12K, 45% Modified Eagle Medium (MEM), supplemented with 10% FBS in tissue culture incubator (37° C., 5% CO2, 90% humidity). Primary skin fibroblasts. Primary skin fibroblasts were obtained from the Coriell Institute for Medical Research (Camden, NJ; Cat #AG09555; the Aging Cell Culture Repository of the National Institute on Aging) and maintained in DMEM with low glucose (Invitrogen, Grand Island, NY) supplemented with 10% FBS in 6-well culture plates (37° C., 5% CO2, 90% humidity) until reaching 90-100% confluence. In addition, cells were treated with either vehicle, 50, and 100 μM quinazoline derivatives and propentofylline. The condition of the cultured cells was monitored with an inverted cell culture microscope (Westover Digital AMID Model 2000, Westover Scientific, Bothell, WA), controlled by a computer, and images were captured with image acquisition software (Micron 2.0.0, Westover Scientific).

[2] = test system: Glioblastoma multiforme (GBM) cells (T98-G); assay: Cell viability by trypan blue exclusion assay; type: cell-based, human; details: 50 and 100 μM, 3 days
Experimental: FIG. 3 depicts concentration dependence cell viability of human glioblastoma multiforme (GBM) cells by novel quinazoline derivative (Compound 1: 6-Pyridin-2-yl-5,6-dihydro-benzo[4,5]imidazo[1,2-c]quinazoline).
as §1
as §2, with “Primary skin fibroblasts were obtained from the Coriell Institute for Medical Research (Camden, NJ; Cat #AG09555; the Aging Cell Culture Repository of the National Institute on Aging) and maintained in DMEM with low glucose (Invitrogen, Grand Island, NY) supplemented with 10% FBS in 6-well culture plates (37° C., 5% CO2, 90% humidity) until reaching 90-100% confluence. In addition, cells were treated with either vehicle, 50, and 100 μM quinazoline derivatives and propentofylline.” left out

[3] = test system: GBM cells; assay: Model tumor spheroid assay: GBM cell invasion in three-dimensional Matrigel matrix; type: cell-based, human; details: 3D Matrigel matrix; for invasive cells in multicellular spheroids: 50 μM
Text: FIG. 5 depicts the Human glioblastoma multiforme (GBM) cell invasion in a three-dimensional Matrigel basement membrane. Model Tumor Spheroid assay: GBM cells form a spheroid tumor-like biological entity in three-dimensional space. Proliferation and invasion of GBM in 3-dimensional Matrigel matrix in 5 days (A) and 12 days (B). Arrows indicate invasive cells in model tumor spheroids. The proliferation and invasion of GBM in a three-dimensional Matrigel matrix have been studied for days. […] Arrows indicate invasive cells.
GBM cells were incubated in a previously prepared 3-dimensional Matrigel matrix. Multicellular spheroids were formed after three days of incubation. The mechanical properties of cell invasion of patient-derived primary glioblastoma cells have been studied recently in 3-D matrigel matric (Grundy et al., 2016). Cellular invasiveness was monitored in multicellular spheroids of GBM embedded in 3D matrigel matric (FIG. 5).

[4] = test system: integrin β1 (CD29); assay: Western blot of integrin β1 levels in GBM cells; type: cell-based, human; details: normalized with β-tubulin, similar concentrations
Text: FIG. 6 depicts a novel quinazoline derivative (Compound 1:-Pyridin-2-yl -5,6-dihydro-benzo[4,5]imidazo[1,2-c]quinazoline) that decreases glioblastoma cell invasion by decreasing integrin β1 (CD29) levels. Intergrin β1 band decreased in Western blot analyses both in normal culture (A), and serum-free condition (B) by the treatment of compound 1. Propentofylline treatment produces reverse effects (A). Relative expression levels of integrin β1 is normalized with β-tubulin as a loading control in Western blot analyses. […] Standard Error of Mean (SEM) is calculated from three independent measurements.
Integrins have an important role to play in cell invasion in tumorigenic environments. […] We also compared the effectiveness of reducing β1 integrin level with propentofylline in the same concentration. […] Deletion of β1 integrin reduced tumorigenesis in in-vivo xenograft tumor growth animal model (Hou et al., 2016).
Reagents and antibodies: Propentofylline (molecular weight 306.366; [1-(5O-oxohexyl)-3-methyl-7-propylxanthine) was purchased from Sigma-Aldrich (St. Louis). Propentofylline and synthetic quinazoline derivatives were dissolved in DMSO (30-60 mM, depending on solubility). Aliquots were stored at −20 C. Stock solutions were dissolved in a culture medium at different concentrations just before each experiment. Rabbit monoclonal anti-Integrin beta 1 [CD29] antibody (Cat #04-1109) was purchased from Millipore (Temecula, CA). Anti-tubulin III antibody (Cat #79-720) was purchased from ProSci (Poway, CA). Antibody for PKCε (C-15) (Santa Cruz Biotechnology, Santa Cruz, CA; Cat No: sc-214) was used to detect PKCε and has been recommended for detection of PKCε of human origin by western blotting and immunofluorescence analysis by the manufacturer. Quinazoline derivatives were synthesized in the laboratory.

[5] = molecular target: T1, PKCε (Homo sapiens, UniProt Q02156); assay: PKCε activity (membrane/cytosol ratio) in neuroblastoma cells; type: cell-based; details: SHSY5Y cells
T1 construct: host or cells: SH-SY5Y human neuroblastoma cells
T1 sequence (Q02156 1-737): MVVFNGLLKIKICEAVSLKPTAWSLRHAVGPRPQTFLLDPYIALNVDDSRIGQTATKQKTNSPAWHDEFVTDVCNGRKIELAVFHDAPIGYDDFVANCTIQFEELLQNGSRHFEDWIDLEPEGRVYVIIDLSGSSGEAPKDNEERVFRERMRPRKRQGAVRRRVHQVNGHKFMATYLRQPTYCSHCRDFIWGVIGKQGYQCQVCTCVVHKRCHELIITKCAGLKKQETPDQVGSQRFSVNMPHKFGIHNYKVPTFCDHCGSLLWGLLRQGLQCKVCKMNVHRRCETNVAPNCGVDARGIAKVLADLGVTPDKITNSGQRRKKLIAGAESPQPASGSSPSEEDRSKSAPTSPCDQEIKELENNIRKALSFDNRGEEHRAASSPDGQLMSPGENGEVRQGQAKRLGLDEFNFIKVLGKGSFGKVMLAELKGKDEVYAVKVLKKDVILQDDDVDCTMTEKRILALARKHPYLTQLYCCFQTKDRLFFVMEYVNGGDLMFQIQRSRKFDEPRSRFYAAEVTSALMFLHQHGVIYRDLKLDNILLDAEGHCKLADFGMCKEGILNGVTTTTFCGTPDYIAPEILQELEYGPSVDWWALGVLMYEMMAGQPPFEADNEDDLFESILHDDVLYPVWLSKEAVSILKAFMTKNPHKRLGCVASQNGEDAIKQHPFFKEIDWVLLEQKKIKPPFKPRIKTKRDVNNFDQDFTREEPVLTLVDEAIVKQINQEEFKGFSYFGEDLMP
Experimental: FIG. 7 depicts how novel quinazoline derivative decreases oncogenic PKCε activity in neuroblastoma cells. C=concentration of PKCε in cytosol fraction, and M=concentration of PKCε in membrane fraction of cells. PKCε activity was measured as the ratio of the concentration in the membrane and cytosol fraction.
Novel quinazoline derivative decreases oncogenic PKCepsilon (PKCε) activity in neuroblastoma cells (FIG. 7). We tested whether novel quinazoline derivatives can decrease oncogenic PKCε activity. […] Oncogenic PKCε is a survival kinase for GBM cells (Okhrimentko et al., 2005).
GBM cell line T98-G (ATCC-CRL-1690) was obtained and authenticated by the American Type Culture Collection (Cat #30-2003; ATCC, Manassas, VA). Cells were cultured and maintained in low glucose Dulbecco's Modified Eagle Medium (DMEM) (Thermo Fisher Scientific) supplemented with 10% fetal bovine serum (FBS, Thermo Fisher Scientific) at 37° C. in a 5% CO2 humidified atmosphere and passed in less than 6 months. Human neuroblastoma cells. […] The condition of the cultured cells was monitored with an inverted cell culture microscope (Westover Digital AMID Model 2000, Westover Scientific, Bothell, WA), controlled by a computer, and images were captured with image acquisition software (Micron 2.0.0, Westover Scientific). […]

[6] = test system: human normal primary skin fibroblasts; assay: Toxicity to cultured normal primary skin fibroblasts; type: cell-based
Experimental: FIG. 8 depicts the non-toxicity of Compound 1.
Insignificant toxicity was found for the quinazoline derivative (Compound 1): One quinazoline derivative (Compound 1) was non-toxic to cultured normal primary skin fibroblasts isolated from healthy individuals (FIG. 8). After three days of continuous treatment by 100 μM Compound 1, there was no cell death.
GBM cell line T98-G (ATCC-CRL-1690) was obtained and authenticated by the American Type Culture Collection (Cat #30-2003; ATCC, Manassas, VA). Cells were cultured and maintained in low glucose Dulbecco's Modified Eagle Medium (DMEM) (Thermo Fisher Scientific) supplemented with 10% fetal bovine serum (FBS, Thermo Fisher Scientific) at 37° C. in a 5% CO2 humidified atmosphere and passed in less than 6 months. Human neuroblastoma cells. Human SH-SY5Y neuroblastoma cells (Sigma-Aldrich) were cultured in 45% F12K, 45% Modified Eagle Medium (MEM), supplemented with 10% FBS in tissue culture incubator (37° C., 5% CO2, 90% humidity). Primary skin fibroblasts. […] The condition of the cultured cells was monitored with an inverted cell culture microscope (Westover Digital AMID Model 2000, Westover Scientific, Bothell, WA), controlled by a computer, and images were captured with image acquisition software (Micron 2.0.0, Westover Scientific).

[7] = test system: GBM cells; details: 2012, cited from earlier work; for GBM cell invasion and survival: Dhruv et al., 2016, Jacob et al.
[8] = test system: Glioblastoma multiforme (GBM); details: cited from earlier work

## c1ccc(C2Nc3ccccc3-c3nc4ccccc4n32)nc1 (centres unmarked) [Compound 1, 6-Pyridin-2-yl-5,6-dihydro-benzo[4,5]imidazo[1,2-c]quinazoline]
[1]; GBM cells, FIG. 4
  potency for inducing apoptosis / inhibiting GBM survival compared with Propentofylline: more potent for inhibiting GBM survival than Propentofylline; also recorded: more potent than Propentofylline to induce apoptosis
[1]
  induction of apoptosis in GBM cells: induced significant apoptosis; also recorded: induce apoptosis; also recorded: caused significant apoptosis
[2]
  cell viability (trypan blue exclusion): Cell viability was reduced
[3]
  invasive cells in multicellular spheroids: no invasive cells
[3]; 5th day
  potency for reducing tumor size and cell invasion compared with Propentofylline: more potent than Propentofylline in terms of reducing tumor size and cell invasion; also recorded: more potent inhibitor of GBM cell invasion
[4]
  integrin β1 expression level: significantly decreases integrin β1 expression level; also recorded: decreasing β1 integrin (CD29) levels; also recorded: significantly reduced expression levels of β1-Integrin
[5]
  PKCε activity (ratio of concentration in membrane and cytosol fraction): significantly decreased the PKCε activity
[6]; 100 μM, three days of continuous treatment
  cell death of primary skin fibroblasts: no noticeable cell death
[6]; cultured normal primary skin fibroblasts from healthy individuals
  toxicity to primary human skin fibroblasts: non-toxic

## c1c[nH]c(-c2nc3ccccc3c3nc4ccccc4n23)c1 [Compound 7, 6-(1H-Pyrrol-2-yl)-benzo[4,5]imidazo[1,2-c]quinazoline]
[1]
  induction of apoptosis in GBM cells: caused significant apoptosis

## CCCn1cnc2c1c(=O)n(CCCCC(C)=O)c(=O)n2C [Propentofylline, 1-(5O-oxohexyl)-3-methyl-7-propylxanthine]
[1]
  induction of apoptosis in GBM cells: did not induce apoptosis
[3]
  invasive cells in multicellular spheroids: Invasive cells were sprouting outside of the spheroid
[4]
  integrin β1 expression level: not able to reduce β1 integrin level
[4]; listed as propentofylline
  integrin β1 expression level: significantly increases integrin β1 expression levels; also recorded: increased expression levels of β1-Integrin
[7]
  GBM cell invasion and survival: decreasing GBM cell invasion and survival
[7]; listed as propentofylline
  GBM cell invasion and survival: decreased GBM cell invasion; also recorded: inhibits GBM survival
[7]; Jacobs et al.
  induction of apoptosis in GBM cells: ineffective inducing apoptosis

## Cn1nnc2c(C(N)=O)ncn2c1=O [TMZ, temozolomide]
[8]; patients
  common side effects: bone marrow suppression, genotoxic, and teratogenic

## Bevacizumab: FDA-approved immunotherapeutic agent; therapeutic antibody (Genentech)
[8]; GBM patients, % of cases
  progression-free survival at 6 months: 36%
[8]; GBM patients
  overall survival: 9.3 months
[8]; human, in vivo
  gastrointestinal perforation: 1.5-5.4%
  hypertension: 5.5-11.4%
  proteinuria: 2.7-11.4%
  thromboembolic events: 3.2-11.9%
  wound healing complications: 0.8-3.3%
[8]; phase II clinical trial (Vredenburgh et al., 2007)
  patients who developed therapeutic resistance: 40%
